Assay: Storage stability in polyethylene bottles, Experiment 6 (other alkalizing agents)
Assay type: physicochemical
Description: It was also investigated whether the stabilization achieved according to the invention with the particularly preferred agent MIPA is also achieved with other alkalizing agents.
Samples of the solutions were stored in bottles made of polyethylene at −5° C., 25° C. and 40° C. in order to investigate the stability.

Structure (SMILES): CCCCCCCCCCCCN(CCCN)CCCN [N,N-bis(3-aminopropyl)-dodecylamine]
- Storage stability / compatibility (conclusion in words): incompatible with TTT

From patent US10584283B2, “Preservative for technical products” (Schülke & Mayr GmbH, priority 2015, dated 2020)
